Experimental data from patent US20240025862A1, “SUBSTITUTED N-PHENYLURACILS AND SALTS THEREOF, AND USE THEREOF AS HERBICIDAL ACTIVE SUBSTANCES” (Bayer Aktiengesellschaft, priority 2020, published 2024).

Key:
Assay type in all cases: in vivo
[1] = system: Matricaria inodora (MATIN); assay: Pre-emergence herbicidal action, greenhouse pot test; conditions: scored after about 3 weeks
From the text: (§1) Seeds of monocotyledonous and dicotyledonous weed plants and crop plants were placed in plastic or organic planting pots and covered with soil. The compounds of the invention, formulated in the form of wettable powders (WP) or as emulsion concentrates (EC), were then applied to the surface of the covering soil as aqueous suspension or emulsion with addition of 0.5% additive at a water application rate equivalent to 600 l/ha (converted). After the treatment, the pots were placed in a greenhouse and kept under good growth conditions for the test plants. After about 3 weeks, the effect of the preparations was scored visually in comparison with untreated controls as percentages. For example, 100% activity=the plants have died, 0% activity=like control plants.
(§2) Tables B1 to B10 below show the effects of selected compounds of the general formula (I) according to Tables I.1 to I.33 on various harmful plants and at an application rate corresponding to 80 g/ha and less, which were obtained by the experimental method specified above. The appendices “a”, “b” and “c” give differentiation by different dosage with otherwise the same harmful plants tested.

[2] = system: Pharbitis purpurea (PHBPU); assay: as above; conditions: scored after about 3 weeks
From the text: as §1, §2

Avena fatua (AVEFA) = assay: as above; conditions: 80 g/ha, scored after about 3 weeks
From the text: as §1, §2

[3] = system: Alopecurus myosuroides (ALOMY); assay: as above; conditions: scored after about 3 weeks
From the text: as §1, §2

[4] = system: Digitaria sanguinalis (DIGSA); assay: as above; conditions: scored after about 3 weeks
From the text: as §1, §2

Veronica persica (VERPE) = assay: as above; conditions: scored after about 3 weeks
From the text: as §1, §2

Lolium rigidum (LOLRI) = assay: as above; conditions: 80 g/ha, scored after about 3 weeks
From the text: as §1, §2

[5] = system: Echinochloa crus-galli (ECHCG); assay: as above; conditions: 80 g/ha, scored after about 3 weeks
From the text: as §1, §2

[6] = system: Abutilon theophrasti (ABUTH); assay: as above; conditions: scored after about 3 weeks
From the text: as §1, §2

[7] = system: Amaranthus retroflexus (AMARE); assay: as above; conditions: scored after about 3 weeks
From the text: as §1, §2

Oryza sativa (ORYSA) = assay: Post-emergence crop plant compatibility, greenhouse pot test (also comparative test C)
Procedure, shortened: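 Rice and other crops sprayed post-emergence at one-leaf stage (2–3 weeks after sowing) with WP or EC formulations plus 0.5% additive at 600 l/ha water. Visual rating about 3 weeks later versus untreated controls (100% = dead, 0% = like control); suffixes a–c denote different doses.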

Brassica napus (BRSNW) = assay: Post-emergence crop plant compatibility, greenhouse pot test; conditions: 1.25 g/ha, vs untreated controls
Procedure, shortened: (§3)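 Percent crop injury was judged by eye roughly three weeks after treatment, relative to untreated plants, where 100% meant death. Application was a post-emergence spray at the one-leaf stage, 600 l/ha water volume with 0.5% additive; letters a, b, c denote differing dose rates.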

[8] = system: Triticum aestivum (TRZAS); assay: as above; conditions: 1.25 g/ha, vs untreated controls
Procedure, shortened: as §3

Glycine max (GLXMA) = assay: as above
Procedure, shortened: as §3

Zea mays (ZEAMX) = assay: as above; conditions: 1.25 g/ha, vs untreated controls
Procedure, shortened: as §3

compatibility with respect to the crop plant Oryza sativa (ORYSA) by comparison with literature compound a-17 / 3-14 (Oryza sativa (ORYSA); application rate of 1.25 g per hectare, table C5): distinct improvement in compatibility
ORYSA (efficacy in %) (Oryza sativa (ORYSA); comparative test C, application rate 1.25 g/ha, crop plant compatibility): 0%
Post-emergence action against BRSNW (crop plant compatibility) (Brassica napus (BRSNW)): 20%
Post-emergence action against TRZAS (crop plant compatibility) [8]: 20%
Post-emergence action against GLXMA in % (Glycine max (GLXMA); 1.25 g/ha): 10%
Post-emergence action against GLXMA in % (Glycine max (GLXMA); 5 g/ha): 10%
Post-emergence action against GLXMA in % (Glycine max (GLXMA); 20 g/ha): 10%
Post-emergence action against ZEAMX (crop plant compatibility) (Zea mays (ZEAMX)): 20%
Compound: COCCOC(=O)COc1ccccc1Oc1cc(-n2c(=O)cc(C(F)(F)F)n(C)c2=O)c(F)cc1Cl [I.7-1, 2-Methoxyethyl (2-{2-chloro-4-fluoro-5-[3-methyl-2,6-dioxo-4-(trifluoromethyl)-3,6-dihydropyrimidin-1(2H)-yl]phenoxy}phenoxy)acetate]
Pre-emergence action against MATIN in % ([1]; 20 g/ha): 100%
Pre-emergence action against MATIN in % ([1]; 80 g/ha): 100%
Pre-emergence action against PHBPU in % ([2]; 20 g/ha): 100%
Pre-emergence action against PHBPU in % ([2]; 80 g/ha): 100%
Pre-emergence action against AVEFA in % (Avena fatua (AVEFA)): 100%
Pre-emergence action against ALOMY in % ([3]; 20 g/ha): 80%
Pre-emergence action against ALOMY in % ([3]; 80 g/ha): 100%
Pre-emergence action against DIGSA in % ([4]; 20 g/ha): 100%
Pre-emergence action against DIGSA in % ([4]; 80 g/ha): 100%
Pre-emergence action against VERPE in % (Veronica persica (VERPE); 20 g/ha): 100%
Pre-emergence action against VERPE in % (Veronica persica (VERPE); 80 g/ha): 100%
Pre-emergence action against LOLRI in % (Lolium rigidum (LOLRI)): 100%
Pre-emergence action against ECHCG in % [5]: 90%
Pre-emergence action against ABUTH in % ([6]; 20 g/ha): 100%
Pre-emergence action against ABUTH in % ([6]; 80 g/ha): 100%
Pre-emergence action against AMARE in % ([7]; 20 g/ha): 100%
Pre-emergence action against AMARE in % ([7]; 80 g/ha): 100%
